Like-named read-outs stand apart in the source and are kept apart here.
Legend:
[1] = tested on: gastric ulcers provoked by a pylorus ligature and acetylsalicylic acid; assay: Antiulcerogenic action (protective action on the stomach), Shay rat: pylorus ligature plus oral acetylsalicylic acid; assay type: in vivo, rats (female); conditions: for ED50: Rattus norvegicus, po, read-out: Protective action on the stomach, ED50
Procedure: (§1) The effect of the compounds according to the invention on the formation, in rats, of gastric ulcers provoked by a pylorus ligature and 10 mg/kg of acetylsalicylic acid and on the inhibition of gastric secretion in rats is shown in the following table:
(§2) compared with the control group
(§3) TQ = therapeutic quotient LD50 /ED50
(§4) The antiulcerogenic action was tested in accordance with the method using the so-called Shay rat: Rats (female, 180 to 200 g, 4 animals per cage on a high grid) which had been fasted for 24 hours were subjected to ulcer provocation by pylorus ligature (under diethyl ether anaesthesia) and oral administration of 100 mg/10 ml/kg of acetylsalicyclic acid. The substances to be tested are administered orally (10 ml/kg) 1 hour before the pylorus ligature. The wound is closed by means of Michel clamps. 4 hours thereafter, the animals are killed under ether anaesthesia by atlas dislocation, and the stomach is removed. The stomach is opened longitudinally and fixed to a cork tile after the amount of gastric juice secreted (volume) has been determined, the number and size (=diameter) of ulcers present are determined with a stereomicroscope with 10-fold magnification. The product of the degree of severity (according to the following rating scale) and the number of ulcers serves as the individual ulcer index.
(§5) ulcer diameter 0.1-1.4 mm 1
(§6) The reduction in the average ulcer index of each treated group compared with that of the control group (=100%) serves as a measure of the antiulcerogenic effect. The ED50 designates the dose which reduces the average ulcer index by 50%.

[2] = as above; assay type: in vivo, rats (female); conditions: rat, in vivo; LD50 i.v. mice / ED50 p.o. rats; read-out: TQ LD50/ED50 (therapeutic quotient)
Procedure: as §1, §2, §3, §4, §5, §6

[3] = tested on: gastric secretion; assay: Inhibition of gastric secretion in rats; assay type: in vivo; conditions: 4 hours after administration of the antiulcerogenic ED50
Procedure: as §1
^(+) % inhibition of the gastric secretion (in %) 4 hours after
administration of the antiulcerogenic ED50
as §4

[4] = Determination of toxicity (LD50, intravenous, mice); conditions: mouse, in vivo; intravenous administration to mice; observation 7 days; dose at which 50% of the animals die
Procedure: LD50 = dose at which 50% of the animals die
The toxicity investigations are carried out on female NMRI mice (body weight: 23 to 30 g). The animals (5 animals per dose) receive feed and water ad libitum. Various doses of the substances are administered intravenously (injection time: 1 minute). The observation period is 7 days. The LD50 (the dose at which 50% of the animals die) is determined by means of linear regression.

| SMILES | ED50 [1] [mg/kg] | therapeutic quotient (LD50/ED50) [2] | Gastric Secretion, % inhibition in rats [3] [%] | LD50 at 168 h [4] [mg/kg] | ED50 ([1]; peroral administration to rats 1 hour before pylorus ligature, dose which reduces the ulcer index by 50% compared with the control group) [mg/kg] | antiulcerogenic action, dose/action curve (in words) ([1]; Shay rat, up to 300 mg/kg for compound 1) |
| --- | --- | --- | --- | --- | --- | --- |
| Cc1cn(C)c2c1N(C(=O)CCN(C)C)c1ccccc1NC2=O [compound 10] | 4.5 | 26.7 | 21 | 120 |  |  |
| Cc1cn(C)c2c1N(C(=O)CN(C)C)c1ccccc1NC2=O [Serial No. 6, 1,3-Dimethyl-4-dimethylaminoacetyl-1,4,9,10-tetrahydropyrrolo[3,2-b][1,5]benzodiazepin-10-one] |  |  | 10 |  | 6.5 |  |
| CCCN(CCC)CC(=O)N1c2ccccc2NC(=O)c2c1c(C)cn2C [Serial No. 7, 1,3-Dimethyl-4-di-(n-propyl)aminoacetyl-1,4,9,10-tetrahydropyrrolo[3,2-b][1,5]benzodiazepin-10-one] | 6.5 | 16.9 | 10 | 110 |  |  |
| CC1(C)[C@@H](OC(=O)CCC(=O)O)CC[C@]2(C)[C@H]3C(=O)C=C4[C@@H]5C[C@@](C)(C(=O)O)CC[C@]5(C)CC[C@@]4(C)[C@]3(C)CC[C@@H]12 [Serial No. 1, Carbenoxolone, reference compound] | 70 |  | 7 |  |  | the dose/action curve is then very severely flattened so that no substantial increase in the antiulcerogenic action can be achieved even at 300 mg/kg |
| CCN(CC)CC(=O)N1c2ccccc2NC(=O)c2c1c(C)cn2C [Serial No. 5, 4-Diethylaminoacetyl-1,3-dimethyl-1,4,9,10-tetrahydropyrrolo[3,2-b][1,5]benzodiazepin-10-one] | 6 | 17.5 | 20 | 105 |  |  |
| Cc1cn(C)c2c1N(C(=O)CN1CCCCC1)c1ccccc1NC2=O [compound 3] | 4.5 | 21.1 | 3 | 95 |  |  |
| Cc1cn(C)c2c1N(C(=O)CN1CCN(C)CC1)c1ccccc1NC2=O [compound 2] | 1.4 | 71.4 | 25 | 100 |  |  |
| Cc1cn(C)c2c1N(C(=O)CN1CCCC1)c1ccccc1NC2=O [compound 4] | 2.2 | 45.5 | 0 | 100 |  |  |
| CCNCC(=O)N1c2ccccc2NC(=O)c2c1c(C)cn2C [compound 8] | 5.5 | 25.5 | 20 | 140 |  |  |
| Cc1cn(C)c2c1N(C(=O)CCN1CCCC1)c1ccccc1NC2=O [compound 9] | 6 | 11.7 | 25 | 70 |  |  |
